Experimental data from patent US20060079453A1, “Hla binding peptides and their uses” (priority 2002, published 2006).
No end group written: not given here.

Experiments:
Assay in all cases: biochemical
Format in all cases: binding
HLA-DR DRB1*0802 (DR8) = HLA-DR DRB1*0802 (DR8) (Homo sapiens, UniProt P01903+P01911, A100R/A103L/A169T/F76Y/H45Y/I96F/K41T/L162R/M171V/P40S/Q125H/Q178H/Q39Y/Q99D/R218S/R42G/S66Y/V115G/W38E)
HLA-DR DRB3*0101 (DR52) = HLA-DR DRB3*0101 (DR52) (Homo sapiens, UniProt P01903+P79483)
HLA-DR DRB1*0401 (DR4) = HLA-DR DRB1*0401 (DR4) (Homo sapiens, UniProt P01903+P01911, A100K/A169T/F76Y/I96L/K127E/L162R/M171V/N62H/P40V/Q125Y/R42H/S133A/S149N/S66Y/V115G/V209L/W38E); conditions: DRB1 *0401
HLA-DR DRB1*1101 (DR11) = HLA-DR DRB1*1101 (DR11) (Homo sapiens, UniProt P01903+P01911, A100R/A169T/A87E/I96F/K41T/L162R/M171V/P40S/Q125H/Q178H/Q39Y/Q99D/R42S/S66Y/T262R/V115G/W38E); conditions: DRB1 *1101
HLA-DR DRB5*0101 (DR51) = HLA-DR DRB5*0101 (DR51) (Homo sapiens, UniProt P01903+Q30154); conditions: DRB5 *0101
HLA-DR DRB4*0101 (DR53) = HLA-DR DRB4*0101 (DR53) (Homo sapiens, UniProt P01903+P13762, G164S); conditions: DRB4 *0101
HLA-DR DRB1*0901 (DR9) = HLA-DR DRB1*0901 (DR9) (Homo sapiens, UniProt P01903+P01911, A100R/A103E/D57H/D86V/F55Y/F60I/F76Y/I96F/K127E/L162R/M171V/P40D/Q125H/Q99R/R33Q/R42F/S133A/S66N/T210M/V115G/W38K/Y107V/Y59G/Y89S); conditions: DRB1 *0901
HLA-DR DRB1*0701 (DR7) = HLA-DR DRB1*0701 (DR7) (Homo sapiens, UniProt P01903+P01911, A100R/A102G/A103Q/D57E/D86V/E43K/F76Y/K127E/L162R/M171V/P40G/Q125H/Q99D/R33Q/R42Y/R54Q/S133A/S66F/T210M/V115G/Y107V/Y59L/Y89S); conditions: DRB1 *0701
HLA-DR DRB1*1302 (DR13) = HLA-DR DRB1*1302 (DR13) (Homo sapiens, UniProt P01903+P01911, A100E/A169T/K41T/L162R/M171V/P40S/Q125H/Q178H/Q39Y/Q99D/R42S/S66N/T262R/V115G/W38E/Y61H); conditions: DRBI *1302
HLA-DR DRB1*0101 (DR1) = HLA-DR DRB1*0101 (DR1) (Homo sapiens, UniProt P01903+P01911, A100R/D57E/F55L/F60I/F76Y/I96L/L162R/M171V/P40L/Q125E/R42F/V115G/Y59C); conditions: DRB1 *0101
HLA-DR DRB1*1501 (DR15) = HLA-DR DRB1*1501 (DR15) (Homo sapiens, UniProt P01903+P01911); conditions: DRBI *1501

Sequence of HLA-DR DRB1*1302 (DR13) (P01903 26-254 limits assumed, other chains not shown): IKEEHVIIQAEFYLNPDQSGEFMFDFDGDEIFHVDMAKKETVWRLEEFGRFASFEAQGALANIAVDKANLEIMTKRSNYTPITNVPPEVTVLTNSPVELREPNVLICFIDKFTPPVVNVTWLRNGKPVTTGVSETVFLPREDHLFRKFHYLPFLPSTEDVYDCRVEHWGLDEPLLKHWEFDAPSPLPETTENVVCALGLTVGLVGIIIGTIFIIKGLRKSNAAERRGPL
Sequence of HLA-DR DRB1*1101 (DR11) (P01903 26-254 limits assumed, other chains not shown): as above

Question: What does the source list for CC[C@H](C)[C@H](NC(=O)[C@H](CS)NC(=O)[C@H](Cc1c[nH]cn1)NC(=O)[C@H](C)NC(=O)[C@H](C)NC(=O)[C@@H](NC(=O)[C@H](CC(C)C)NC(=O)[C@@H](NC(=O)[C@H](Cc1c[nH]c2ccccc12)NC(=O)[C@@H](N)CCC(N)=O)C(C)C)[C@@H](C)O)C(=O)N[C@@H](CCCNC(=N)N)C(=O)N[C@@H](CC(N)=O)C(=O)N[C@@H](CCCCN)C(=O)N[C@@H](CO)C(=O)N[C@H](C(=O)O)C(C)C?
Answer: IC50 (HLA-DR DRB1*0802 (DR8)): 2.6 µM; IC50 (HLA-DR DRB3*0101 (DR52)): 7.34 µM; IC50 (HLA-DR DRB1*0401 (DR4)): 19.4 µM; IC50 (HLA-DR DRB1*1101 (DR11)): 2.17 µM; IC50 (HLA-DR DRB5*0101 (DR51)): 0.035 µM; IC50 (HLA-DR DRB4*0101 (DR53)): 3.8 µM; IC50 (HLA-DR DRB1*0901 (DR9)): 0.967 µM; IC50 (HLA-DR DRB1*0701 (DR7)): 0.214 µM; IC50 (HLA-DR DRB1*1302 (DR13)): 2.06 µM; IC50 (HLA-DR DRB1*0101 (DR1)): 0.05 µM; IC50 (HLA-DR DRB1*1501 (DR15)): 13.6 µM

Question: Which results are given for CC[C@H](C)[C@H](NC(=O)[C@@H]1CCCN1C(=O)[C@H](CC(=O)O)NC(=O)[C@@H](NC(=O)[C@@H]1CCCN1C(=O)[C@H](Cc1ccccc1)NC(=O)[C@@H](NC(=O)[C@H](CC(=O)O)NC(=O)[C@@H](NC(=O)[C@@H]1CCCN1C(=O)[C@H](CO)NC(=O)[C@@H](N)CCCNC(=N)N)[C@@H](C)CC)[C@@H](C)O)[C@@H](C)O)C(=O)N[C@@H](CCCCN)C(=O)N[C@@H](CCC(=O)O)C(=O)N[C@@H](CO)C(=O)O?
Answer: IC50 (HLA-DR DRB1*0802 (DR8)): > 245 µM; IC50 (HLA-DR DRB3*0101 (DR52)): > 14.4 µM; IC50 (HLA-DR DRB1*1101 (DR11)): > 200 µM; IC50 (HLA-DR DRB5*0101 (DR51)): 28.6 µM; IC50 (HLA-DR DRB4*0101 (DR53)): 0.469 µM; IC50 (HLA-DR DRB1*0901 (DR9)): 6.12 µM; IC50 (HLA-DR DRB1*0701 (DR7)): > 62.5 µM; IC50 (HLA-DR DRB1*1302 (DR13)): > 35 µM; IC50 (HLA-DR DRB1*0101 (DR1)): > 50 µM; IC50 (HLA-DR DRB1*1501 (DR15)): 2.37 µM

Question: For CC[C@H](C)[C@H](NC(=O)[C@@H]1CCCN1C(=O)[C@H](CCC(N)=O)NC(=O)[C@@H](N)Cc1c[nH]c2ccccc12)C(=O)N1CCC[C@H]1C(=O)N[C@H](C(=O)N[C@@H](Cc1c[nH]cn1)C(=O)N[C@H](C(=O)N[C@H](C(=O)N1CCC[C@H]1C(=O)N[C@@H](CC(C)C)C(=O)N[C@@H](CO)C(=O)N[C@@H](CCC(=O)O)C(=O)N[C@@H](CC(=O)O)C(=O)N[C@@H](CCC(N)=O)C(=O)O)C(C)C)[C@@H](C)O)C(C)C, which IC50 (HLA-DR DRB1*0802 (DR8)) is on record?
Answer: > 81.7 µM

Question: What about the IC50 (HLA-DR DRB3*0101 (DR52)) of the same molecule?
Answer: > 8.83 µM

Question: And the IC50 (HLA-DR DRB1*0401 (DR4))?
Answer: > 26.7 µM

Question: And the IC50 (HLA-DR DRB1*1101 (DR11))?
Answer: > 66.7 µM

Question: What about the IC50 (HLA-DR DRB5*0101 (DR51)) of the same molecule?
Answer: > 100 µM

Question: What about the IC50 (HLA-DR DRB4*0101 (DR53)) of the same molecule?
Answer: 1.23 µM

Question: And the IC50 (HLA-DR DRB1*0901 (DR9))?
Answer: 17.5 µM

Question: What about the IC50 (HLA-DR DRB1*0701 (DR7)) of the same molecule?
Answer: 0.159 µM

Question: And the IC50 (HLA-DR DRB1*1302 (DR13))?
Answer: 2.69 µM

Question: And the IC50 (HLA-DR DRB1*0101 (DR1))?
Answer: 6.39 µM

Question: And the IC50 (HLA-DR DRB1*1501 (DR15))?
Answer: > 45.5 µM

Question: With CC(C)C[C@H](NC(=O)CNC(=O)[C@H](CC(N)=O)NC(=O)[C@@H](N)Cc1ccc(O)cc1)C(=O)N[C@@H](CC(C)C)C(=O)N1CCC[C@H]1C(=O)N1CCC[C@H]1C(=O)N[C@@H](Cc1ccc(O)cc1)C(=O)N[C@@H](C)C(=O)N[C@@H](CO)C(=O)N[C@@H](CS)C(=O)N[C@@H](Cc1c[nH]cn1)C(=O)N[C@@H](CC(C)C)C(=O)N[C@H](C(=O)N[C@@H](CCC(=O)O)C(=O)O)[C@@H](C)O as the molecule, how does the IC50 (HLA-DR DRB1*0802 (DR8)) read?
Answer: 14 µM

Question: And the IC50 (HLA-DR DRB3*0101 (DR52))?
Answer: > 15 µM

Question: What about the IC50 (HLA-DR DRB1*0401 (DR4)) of the same molecule?
Answer: 6.19 µM

Question: What about the IC50 (HLA-DR DRB1*1101 (DR11)) of the same molecule?
Answer: 5.3 µM

Question: And the IC50 (HLA-DR DRB5*0101 (DR51))?
Answer: ≥ 100 µM

Question: And the IC50 (HLA-DR DRB4*0101 (DR53))?
Answer: > 10.9 µM

Question: And the IC50 (HLA-DR DRB1*0901 (DR9))?
Answer: 8.02 µM

Question: What about the IC50 (HLA-DR DRB1*0701 (DR7)) of the same molecule?
Answer: > 83.3 µM

Question: What about the IC50 (HLA-DR DRB1*1302 (DR13)) of the same molecule?
Answer: 11.7 µM

Question: And the IC50 (HLA-DR DRB1*0101 (DR1))?
Answer: 0.042 µM

Question: What about the IC50 (HLA-DR DRB1*1501 (DR15)) of the same molecule?
Answer: 0.252 µM

Question: Which IC50 (HLA-DR DRB1*0802 (DR8)) does the source give for DFEVFFQRLGIASGR here?
Answer: 0.122 µM

Question: And the IC50 (HLA-DR DRB3*0101 (DR52))?
Answer: 30.7 µM

Question: And the IC50 (HLA-DR DRB1*0401 (DR4))?
Answer: 0.221 µM

Question: What about the IC50 (HLA-DR DRB1*1101 (DR11)) of the same molecule?
Answer: 0.128 µM

Question: And the IC50 (HLA-DR DRB5*0101 (DR51))?
Answer: 3.56 µM

Question: What about the IC50 (HLA-DR DRB4*0101 (DR53)) of the same molecule?
Answer: 0.0042 µM

Question: What about the IC50 (HLA-DR DRB1*0901 (DR9)) of the same molecule?
Answer: 2 µM

Question: What about the IC50 (HLA-DR DRB1*0701 (DR7)) of the same molecule?
Answer: 21.9 µM

Question: And the IC50 (HLA-DR DRB1*1302 (DR13))?
Answer: 10.1 µM

Question: What about the IC50 (HLA-DR DRB1*1501 (DR15)) of the same molecule?
Answer: 10.2 µM

Question: For GKVFRGNKVKNAQLA, which IC50 (HLA-DR DRB1*0802 (DR8)) is on record?
Answer: 4.12 µM

Question: What about the IC50 (HLA-DR DRB3*0101 (DR52)) of the same molecule?
Answer: 7.59 µM

Question: What about the IC50 (HLA-DR DRB1*0401 (DR4)) of the same molecule?
Answer: 1.09 µM

Question: What about the IC50 (HLA-DR DRB1*1101 (DR11)) of the same molecule?
Answer: 0.894 µM

Question: What about the IC50 (HLA-DR DRB4*0101 (DR53)) of the same molecule?
Answer: 7.88 µM

Question: What about the IC50 (HLA-DR DRB1*0901 (DR9)) of the same molecule?
Answer: 31.3 µM

Question: What about the IC50 (HLA-DR DRB1*0701 (DR7)) of the same molecule?
Answer: 2.35 µM

Question: What about the IC50 (HLA-DR DRB1*1302 (DR13)) of the same molecule?
Answer: 0.046 µM

Question: And the IC50 (HLA-DR DRB1*0101 (DR1))?
Answer: 0.612 µM

Question: What about the IC50 (HLA-DR DRB1*1501 (DR15)) of the same molecule?
Answer: 3.37 µM
